Data: US20240401144A2, “PRIMER-PROBE COMPOSITION, KIT, AND DETECTION METHOD” (ASCENTAWITS PHARMACEUTICALS, LTD., priority 2021, published 2024)

Key:
[1] = test system: NCIH2106 NSCLC cell line; test: Ex vivo proliferation assay, 72 h exposure; assay type: cell-based; conditions: Homo sapiens; NCIH2106, 72 h of exposure; read-out: 3424 IC50
Method: (§1) Exponentially growing cells were inoculated. After 24 h, the test compound OBI-3424 was added. After addition of the test compound OBI-3424, plates were incubated in a standard tissue incubator at 37° C. for the indicated hours. At the end of the experiment, viable cells were detected using the CellTiter Glo (CTG) assay kit or AlamarBlue. Drug concentrations (IC50) resulting in 50% growth inhibition relative to untreated control were calculated using XLfit (IDBS, Boston, MA) or Prism 6 (GraphPad, San Diego, CA).
(§2) After exposing the hepatocellular carcinoma cell lines to compound OBI-3424 for 96 h and exposing the NSCLC cell lines to compound OBI-3424 for 72 h, the IC50 value was determined by ex vivo proliferation assay, and the expression of AKR1C3 protein in hepatocellular carcinoma cell lines was determined by Western blotting (tubulin was used as loading control). The expression data of AKR1C3 RNA in the hepatocellular carcinoma cell lines and in the NSCLC cell lines were from CrownBio database (https://db.crownbio.com/Crownbio/OncoExpress_Login.aspx).

[2] = test system: NCI-H2110 NSCLC cell line; test: Ex vivo proliferation assay, 72 h exposure; assay type: cell-based; conditions: Homo sapiens; NCI-H2110, 72 h of exposure; read-out: 3424 IC50
Method: as §1, §2

[3] = test system: NCI-H1563 NSCLC cell line; test: Ex vivo proliferation assay, 72 h exposure; assay type: cell-based; conditions: Homo sapiens; NCI-H1563, 72 h of exposure; read-out: 3424 IC50
Method: as §1, §2

[4] = test system: hepatocellular carcinoma cell lines; test: Ex vivo proliferation assay, group of hepatocellular carcinoma cell lines (summary); assay type: cell-based, human
Method: as §1, §2
On the other hand, cells expressing low AKR1C3 were less sensitive to OBI-3424, where IC50 values were higher than 1000 nM.

Compound `C[C@H](OP(=O)(N1CC1)N1CC1)c1ccc([N+](=O)[O-])c(Oc2cccc(C(=O)N(C)C)c2)c1` [OBI-3424] has an IC50 [1] greater than 1000 nM, an IC50 [2] of 1.1 nM and an IC50 [3] of 2.5 nM. The IC50 ([4]; Homo sapiens, cells expressing low AKR1C3) was greater than 1000 nM and the IC50 values ([4]; hepatocellular carcinoma cell lines with high AKR1C3 expression at both protein and RNA levels) was “low nanomolar range”.
